Test results: patent US9040458B2, “Safening composition of 6-(trisubstituded phenyl)-4-amino-2-pyridinecarboxylate herbicides and cloquintocet-mexyl for cereal crops” (Dow AgroSciences LLC, priority 2008, dated 2015)
Structures can show the parent of a compound that is named as a salt.

Legend:
HORVW (winter barley) = assay: Postemergence herbicidal safening, greenhouse, visual injury; format: in vivo, Hordeum vulgare; conditions: applied alone at 140 g/ha; 20-22 d; listed as 1 Methyl Ester
Protocol: Seeds of the desired test plant species were planted in Sun Gro MetroMix® 306 planting mixture, which typically has a pH of 6.0 to 6.8 and an organic matter content of about 30 percent, in plastic pots with a surface area of 103.2 square centimeters (cm^2). When required to ensure good germination and healthy plants, a fungicide treatment and/or other chemical or physical treatment was applied. The plants were grown for 7-36 days (d) in a greenhouse with an approximate […] photoperiod which was maintained at about 18° C. during the day and 17° C. during the night. Nutrients and water were added on a regular basis and supplemental lighting was provided with overhead metal halide 1000-Watt lamps as necessary. The plants were employed for testing when they reached the second or third true leaf stage. […]
The treated plants and control plants were placed in a greenhouse as described above and watered by sub-irrigation to prevent wash-off of the test compounds. After 20-22 d, the condition of the test plants as compared with that of the control plants was determined visually and scored on a scale of 0 to 100 percent where 0 corresponds to no injury and 100 corresponds to complete kill. […]

[1] = test system: TRZAS = Triticum aestivum (spring wheat); assay: as above; format: in vivo; conditions: 20-22 d
Protocol: (§1) Seeds of the desired test plant species were planted in Sun Gro MetroMix® 306 planting mixture, which typically has a pH of 6.0 to 6.8 and an organic matter content of about 30 percent, in plastic pots with a surface area of 103.2 square centimeters (cm^2). When required to ensure good germination and healthy plants, a fungicide treatment and/or other chemical or physical treatment was applied. The plants were grown for 7-36 days (d) in a greenhouse with an approximate […] photoperiod which was maintained at about 18° C. during the day and 17° C. during the night. Nutrients and water were added on a regular basis and supplemental lighting was provided with overhead metal halide 1000-Watt lamps as necessary. The plants were employed for testing when they reached the second or third true leaf stage.
(§2) Weighed amounts of esters (methyl) or salts (TEA [triethylammonium], potassium [K]) of 4-amino-3-chloro-6-(4-chloro-2-fluoro-3-methoxyphenyl)pyridine-2-carboxylic acid (Compound 1) were dissolved in a volume of 97:3 volume/volume (v/v) acetone/dimethylsulfoxide (DMSO) to obtain stock solutions. […] The concentrated stock solutions were diluted with an aqueous mixture of 1.5% v/v of Agri-dex crop oil concentrate to provide the appropriate application rates. Compound requirements are based upon a 12 mL application volume at a rate of 187 liters per hectare (L/ha). Stocks solutions of the safeners were prepared following the same procedure. Spray solutions of the safeners and experimental compound mixtures were prepared by adding the appropriate volume of both stock solutions to the appropriate amount of dilution solution to form a 12 mL spray solution with active ingredients in two-way combinations. Formulated compounds were applied to the plant material with an overhead Mandel track sprayer equipped with 8002E nozzles calibrated to deliver 187 L/ha over an application area of 0.503 square meters (m^2) at a spray height of 18 inches (43 centimeters (cm)) above average plant canopy. Control plants were sprayed in the same manner with the solvent blank.
(§3) The treated plants and control plants were placed in a greenhouse as described above and watered by sub-irrigation to prevent wash-off of the test compounds. After 20-22 d, the condition of the test plants as compared with that of the control plants was determined visually and scored on a scale of 0 to 100 percent where 0 corresponds to no injury and 100 corresponds to complete kill.
(§4) Colby's equation was used to determine the herbicidal effects expected from the mixtures (Colby, S. R., Calculation of the synergistic and antagonistic response of herbicide combinations. Weeds 1967, 15, 20-22.).
(§5) The following equation was used to calculate the expected activity of mixtures containing two active ingredients, A and B: Expected=A+B−(A×B/100)
(§6) A=observed efficacy of active ingredient A at the same concentration as used in the mixture.
(§7) B=observed efficacy of active ingredient B at the same concentration as used in the mixture.

[2] = test system: HORVS = Hordeum vulgare (spring barley); assay: as above; format: in vivo; conditions: 20-22 d
Protocol: as §1, §2, §3, §4, §5, §6, §7

[3] = test system: TRZAW = Triticum aestivum (winter wheat); assay: as above; format: in vivo; conditions: applied alone at 140 g/ha; 20-22 d; listed as 1 Methyl Ester
Protocol: as §1, §2, §3, §4, §5, §6, §7

PAPRH (corn poppy) = assay: Postemergence herbicidal activity, greenhouse, visual injury; format: in vivo, Papaver rhoeas; conditions: applied alone at 35 g/ha; 20-22 d
Protocol: as §1, §2, §3, §4, §5, §6, §7

[4] = test system: LAMPU (purple deadnettle); assay: as above; format: in vivo, Lamium purpureum; conditions: applied alone at 35 g/ha; 20-22 d
Protocol: as §1, §2, §3, §4, §5, §6, §7

[5] = test system: VERPE = Veronica persica (bird's-eye speedwell); assay: as above; format: in vivo; conditions: applied alone at 140 g/ha, 20-22 d
Protocol: as §1, §2, §3, §4, §5, §6, §7

[6] = test system: GALAP = Galium aparine (cleavers); assay: as above; format: in vivo; conditions: applied alone at 140 g/ha; 20-22 d
Protocol: as §1, §2, §3, §4, §5, §6, §7

[7] = test system: MATCH = Matricaria chamomila (scented mayweed); assay: as above; format: in vivo; conditions: applied alone at 140 g/ha, 20-22 d
Protocol: as §1, §2, §3, §4, §5, §6, §7

[8] = test system: SASKR = Salsola iberica (Russian thistle); assay: as above; format: in vivo; conditions: applied alone at 140 g/ha, 20-22 d
Protocol: as §1, §2, §3, §4, §5, §6, §7

[9] = test system: VIOTR = Viola tricolor (wild pansy); assay: as above; format: in vivo; conditions: applied alone at 140 g/ha, 20-22 d
Protocol: as §1, §2, §3, §4, §5, §6, §7

[10] = test system: KCHSC = Kochia scoparia (kochia); assay: as above; format: in vivo; conditions: applied alone at 140 g/ha, 20-22 d
Protocol: as §1, §2, §3, §4, §5, §6, §7

[11] = applied alone at 8.75 g/ha, listed as 1 Methyl Ester
[12] = applied alone at 35 g/ha, listed as 1 Methyl Ester
[13] = applied alone at 35 g/ha, listed as (I) Methyl ester
[14] = applied alone at 140 g/ha, listed as 1 Methyl Ester
[15] = applied alone at 8.75 g/ha, listed as (1) K-salt
[16] = applied alone at 35 g/ha, listed as (1) K-salt
[17] = applied alone at 140 g/ha, listed as (1) K-salt

COc1c(Cl)ccc(-c2cc(N)c(Cl)c(C(=O)O)n2)c1F [Compound 1 Methyl Ester, 4-amino-3-chloro-6-(4-chloro-2-fluoro-3-methoxyphenyl)pyridine-2-carboxylic acid]
HORVW Ob (observed injury) (HORVW (winter barley)): 42%
TRZAS Ob (observed injury) [1, 11]: 13%
TRZAS Ob (observed injury) [1, 12]: 43%
TRZAS Ob (observed injury) [1, 13]: 45%
TRZAS Ob (observed injury) ([1]; applied alone at 70 g/ha, listed as 1 Methyl Ester): 25%
TRZAS Ob (observed injury) [1, 14]: 37%
HORVS Ob (observed injury) [2, 11]: 22%
HORVS Ob (observed injury) [2, 12]: 38%
HORVS Ob (observed injury) [2, 13]: 43%
HORVS Ob (observed injury) [2, 14]: 42%
TRZAW Ob (observed injury) [3]: 32%
PAPRH Ob (observed injury) (PAPRH (corn poppy)): 97%
LAMPU Ob (observed injury) [4]: 100%
VERPE Ob (observed injury) ([5]; listed as 1 Methyl Ester): 91%
GALAP Ob (observed injury) [6]: 100%
MATCH Ob (observed injury) ([7]; listed as 1 Methyl Ester): 82%
SASKR Ob (observed injury) ([8]; listed as 1 Methyl Ester): 91%
VIOTR Ob (observed injury) ([9]; listed as 1 Methyl Ester): 67%
KCHSC Ob (observed injury) ([10]; listed as 1 Methyl Ester): 100%

COc1c(Cl)ccc(-c2cc(N)c(Cl)c(C(=O)O)n2)c1F [Compound (1) K-salt, 4-amino-3-chloro-6-(4-chloro-2-fluoro-3-methoxyphenyl)pyridine-2-carboxylic acid]
TRZAS Ob (observed injury) [1, 15]: 15%
TRZAS Ob (observed injury) [1, 16]: 43%
TRZAS Ob (observed injury) ([1]; applied alone at 70 g/ha, listed as (1) K-salt): 11%
TRZAS Ob (observed injury) [1, 17]: 52%
HORVS Ob (observed injury) [2, 15]: 25%
HORVS Ob (observed injury) [2, 16]: 38%
HORVS Ob (observed injury) [2, 17]: 45%
VERPE Ob (observed injury) ([5]; listed as (1) K-salt): 87%
MATCH Ob (observed injury) ([7]; listed as (1) K-salt): 88%
SASKR Ob (observed injury) ([8]; listed as (1) K-salt): 87%
VIOTR Ob (observed injury) ([9]; listed as (1) K-salt): 63%
KCHSC Ob (observed injury) ([10]; listed as (1) K-salt): 100%
